The values that follow come from US8133912B2 (priority 2006, dated 2012).

Data set [1] in a line: resolvability (solubility) in ultrapure water. The settings on record: 5 mg scale in 50 μL ultrapure water, stirred.
A further data set relates to cell growth. It is filed as cell-based.
The test system of the next data set is mouse. The conditions noted are these: in vivo, po; cited from earlier work.

Regarding “methyl aquocobyrinic acid heptamethyl ester perchlorate [hydrophobic vitamin B12]”, the resolvability to water entry in data set [1] is on record as “not completely dissolved”.

On to “methyl aquocobyrinic acid sodium perchlorate”, for which the resolvability to water entry in data set [1] is recorded as “No precipitate occurred”.

tetramethyl arsenic [TeMA]: in the data set with cell growth, the “IC50 (50% Growth inhibition)” value amounted to 8000 µg/mL. In the data set on mouse, the “LD50 (50% Lethal dose)” value was 900 mg/kg.
